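These data come from cells grown in 96-well plates and exposed to compound for 48 hours at five concentrations. Abbreviation: GI50, concentration required for 50% inhibition of growth. TGI: concentration producing complete growth inhibition.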
Key:
Assay in all cases: DTP human tumour cell line panel, 48 h
DU-145 prostate = test system: DU-145 prostate
HCT-15 colon = test system: HCT-15 colon
SR leukemia = test system: SR leukemia
OVCAR-8 ovarian = test system: OVCAR-8 ovarian
HS 578T breast = test system: HS 578T breast
NCI-H226 lung = test system: NCI-H226 lung
NCI/ADR-RES ovarian = test system: NCI/ADR-RES ovarian
RXF 393 renal = test system: RXF 393 renal
A498 renal = test system: A498 renal
EKVX NSCLC = test system: EKVX NSCLC
SF-295 CNS = test system: SF-295 CNS
PC-3 prostate = test system: PC-3 prostate
HOP-62 NSCLC = test system: HOP-62 NSCLC
MDA-MB-468 breast = test system: MDA-MB-468 breast
HL-60(TB) leukemia = test system: HL-60(TB) leukemia
UACC-257 melanoma = test system: UACC-257 melanoma
SNB-19 CNS = test system: SNB-19 CNS
NCI-H460 lung = test system: NCI-H460 lung
NCI-H23 lung = test system: NCI-H23 lung
KM12 colon = test system: KM12 colon
A549 NSCLC = test system: A549 NSCLC
MALME-3M melanoma = test system: MALME-3M melanoma
OVCAR-5 ovarian = test system: OVCAR-5 ovarian
RPMI-8226 leukemia = test system: RPMI-8226 leukemia
MOLT-4 leukemia = test system: MOLT-4 leukemia
786-0 renal = test system: 786-0 renal
SNB-75 CNS = test system: SNB-75 CNS
SF-268 CNS = test system: SF-268 CNS
UACC-62 melanoma = test system: UACC-62 melanoma

CN1CCc2c(sc3ncnc(N/N=C/c4cn(-c5ccccc5)nc4-c4ccc(Cl)cc4)c23)C1
GI50 (DU-145 prostate): 1410 nM
TGI (DU-145 prostate): > 100000 nM
GI50 (HCT-15 colon): 390 nM
TGI (HCT-15 colon): > 100000 nM
GI50 (SR leukemia): 2660 nM
TGI (SR leukemia): > 100000 nM
GI50 (OVCAR-8 ovarian): 368 nM
TGI (OVCAR-8 ovarian): > 38500 nM
GI50 (HS 578T breast): 15600 nM
TGI (HS 578T breast): > 89700 nM
GI50 (NCI-H226 lung): 1190 nM
TGI (NCI-H226 lung): > 65900 nM
GI50 (NCI/ADR-RES ovarian): 320 nM
TGI (NCI/ADR-RES ovarian): 1760 nM
GI50 (RXF 393 renal): 3560 nM
TGI (RXF 393 renal): 34600 nM
GI50 (A498 renal): > 56700 nM
TGI (A498 renal): > 100000 nM
GI50 (EKVX NSCLC): 313 nM
TGI (EKVX NSCLC): > 42600 nM
GI50 (SF-295 CNS): 403 nM
TGI (SF-295 CNS): > 37700 nM
GI50 (PC-3 prostate): 472 nM
TGI (PC-3 prostate): > 100000 nM
GI50 (HOP-62 NSCLC): 724 nM
TGI (HOP-62 NSCLC): > 84300 nM
GI50 (MDA-MB-468 breast): 208 nM
TGI (MDA-MB-468 breast): 595 nM
GI50 (HL-60(TB) leukemia): 292 nM
TGI (HL-60(TB) leukemia): 1980 nM
GI50 (UACC-257 melanoma): 473 nM
TGI (UACC-257 melanoma): > 100000 nM
GI50 (SNB-19 CNS): 3280 nM
TGI (SNB-19 CNS): > 57300 nM
GI50 (NCI-H460 lung): 390 nM
TGI (NCI-H460 lung): 30000 nM
GI50 (NCI-H23 lung): 326 nM
TGI (NCI-H23 lung): 10800 nM
GI50 (KM12 colon): 496 nM
TGI (KM12 colon): > 100000 nM
GI50 (A549 NSCLC): 496 nM
TGI (A549 NSCLC): > 100000 nM
GI50 (MALME-3M melanoma): 999 nM
TGI (MALME-3M melanoma): > 100000 nM
GI50 (OVCAR-5 ovarian): 419 nM
TGI (OVCAR-5 ovarian): > 100000 nM
GI50 (RPMI-8226 leukemia): 443 nM
TGI (RPMI-8226 leukemia): > 100000 nM
GI50 (MOLT-4 leukemia): 319 nM
TGI (MOLT-4 leukemia): > 100000 nM
GI50 (786-0 renal): 588 nM
TGI (786-0 renal): 18000 nM
GI50 (SNB-75 CNS): 13800 nM
TGI (SNB-75 CNS): 60800 nM
GI50 (SF-268 CNS): 678 nM
TGI (SF-268 CNS): > 100000 nM
GI50 (UACC-62 melanoma): 787 nM
TGI (UACC-62 melanoma): 14400 nM

Reference: PubChem BioAssay (NCI)
